{
  "source": "paper PMC9860845",
  "about": "“Synthesis, DFT Studies, Molecular Docking and Biological Activity Evaluation of Thiazole-Sulfonamide Derivatives as Potent Alzheimer’s Inhibitors” (Molecules, 2023)",
  "key": {"[1]": {"molecular_target": "acetylcholinesterase (AChE) (Homo sapiens, UniProt P22303)", "sequence (P22303 32-614, species assumed)": "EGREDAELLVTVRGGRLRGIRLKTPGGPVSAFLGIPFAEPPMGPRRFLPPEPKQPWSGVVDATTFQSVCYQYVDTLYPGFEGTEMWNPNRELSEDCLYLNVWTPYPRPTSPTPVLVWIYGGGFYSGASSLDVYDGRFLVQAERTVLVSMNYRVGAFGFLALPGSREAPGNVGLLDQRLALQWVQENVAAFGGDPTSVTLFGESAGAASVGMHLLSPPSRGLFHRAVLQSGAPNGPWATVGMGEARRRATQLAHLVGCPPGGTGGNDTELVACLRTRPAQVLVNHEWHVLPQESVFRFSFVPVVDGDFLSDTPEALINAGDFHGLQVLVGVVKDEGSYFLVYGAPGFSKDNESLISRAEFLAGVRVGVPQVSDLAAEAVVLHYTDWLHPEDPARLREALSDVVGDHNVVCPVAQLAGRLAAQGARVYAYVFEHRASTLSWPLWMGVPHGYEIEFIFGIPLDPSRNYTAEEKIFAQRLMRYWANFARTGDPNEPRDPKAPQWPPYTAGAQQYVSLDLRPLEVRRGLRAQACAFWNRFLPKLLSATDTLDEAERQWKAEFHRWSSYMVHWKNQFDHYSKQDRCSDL", "assay": "biochemical"}, "[2]": {"molecular_target": "butyrylcholinesterase (BuChE) (Homo sapiens, UniProt P06276)", "sequence (P06276 29-602)": "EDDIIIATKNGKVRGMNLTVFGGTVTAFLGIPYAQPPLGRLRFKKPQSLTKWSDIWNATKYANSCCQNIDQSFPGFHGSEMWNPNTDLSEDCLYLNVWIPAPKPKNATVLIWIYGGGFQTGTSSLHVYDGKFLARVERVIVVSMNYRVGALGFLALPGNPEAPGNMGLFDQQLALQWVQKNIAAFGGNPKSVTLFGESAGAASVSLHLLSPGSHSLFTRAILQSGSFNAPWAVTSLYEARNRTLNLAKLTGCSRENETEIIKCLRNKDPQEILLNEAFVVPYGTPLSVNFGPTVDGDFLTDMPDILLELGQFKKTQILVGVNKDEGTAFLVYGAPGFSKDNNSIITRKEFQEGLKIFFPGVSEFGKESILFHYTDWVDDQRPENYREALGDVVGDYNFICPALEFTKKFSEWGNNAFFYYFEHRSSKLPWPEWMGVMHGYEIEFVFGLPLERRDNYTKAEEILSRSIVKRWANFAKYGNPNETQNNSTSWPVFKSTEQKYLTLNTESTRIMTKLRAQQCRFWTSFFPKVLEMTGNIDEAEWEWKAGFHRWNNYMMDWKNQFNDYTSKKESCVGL", "assay": "biochemical"}, "[3]": {"conditions": "Ellman method, pH 7.7, 37 °C, triplicate, ± SEM, read-out: AchE IC50"}, "[4]": {"conditions": "Ellman method, pH 7.7, 37 °C, triplicate, ± SEM, read-out: BuChE IC50"}},
  "note": "Read-outs that look alike come from different tables or passages of the source.",
  "data": [
    {"molecule": "O=[N+]([O-])c1ccc([N+](=O)[O-])c(S(=O)(=O)NNc2nc(-c3ccc(-c4ccccc4)cc3)cs2)c1", "note": "[analog 19, N′-(4-([1,1′-biphenyl]-4-yl)thiazol-2-yl)-2,5-dinitrobenzenesulfonohydrazide]", "values": [
      {"measurement": "IC50", "setting": "[1]", "value": "3.1 ± 0.1", "unit": "µM"},
      {"measurement": "IC50", "setting": "[2]", "value": "4.3 ± 0.1", "unit": "µM"}
    ]},
    {"molecule": "O=[N+]([O-])c1cccc(S(=O)(=O)NNc2nc(-c3ccc(Cl)c(Cl)c3)cs2)c1", "note": "[analog 13, N′-(4-(3,4-dichlorophenyl)thiazol-2-yl)-3-nitrobenzenesulfonohydrazide]", "values": [
      {"measurement": "IC50", "setting": "[1]; [3]", "value": "0.3 ± 0.1", "unit": "µM"},
      {"measurement": "IC50", "setting": "[2]; [4]", "value": "1.4 ± 0.1", "unit": "µM"}
    ]},
    {"molecule": "O=[N+]([O-])c1cccc(-c2csc(NNS(=O)(=O)c3ccc(Cl)cc3)n2)c1", "note": "[analog 2, 4-Chloro-N′-(4-(3-nitrophenyl)thiazol-2-yl)benzenesulfonohydrazide]", "values": [
      {"measurement": "IC50", "setting": "[1]; [3]", "value": "1.9 ± 0.1", "unit": "µM"},
      {"measurement": "IC50", "setting": "[2]; [4]", "value": "2.7 ± 0.1", "unit": "µM"}
    ]},
    {"molecule": "O=[N+]([O-])c1ccc(S(=O)(=O)NNc2nc(-c3ccc(-c4ccccc4)cc3)cs2)cc1", "note": "[analog 21, N′-(4-([1,1′-biphenyl]-4-yl)thiazol-2-yl)-4-nitrobenzenesulfonohydrazide]", "values": [
      {"measurement": "IC50", "setting": "[1]; [3]", "value": "3.2 ± 0.1", "unit": "µM"},
      {"measurement": "IC50", "setting": "[2]; [4]", "value": "5.4 ± 0.1", "unit": "µM"}
    ]},
    {"molecule": "O=[N+]([O-])c1cccc(-c2csc(NNS(=O)(=O)c3cccc([N+](=O)[O-])c3)n2)c1", "note": "[analog 3, 3-Nitro-N′-(4-(3-nitrophenyl)thiazol-2-yl)benzenesulfonohydrazide]", "values": [
      {"measurement": "IC50", "setting": "[1]", "value": "2.9 ± 0.1", "unit": "µM"},
      {"measurement": "IC50", "setting": "[2]", "value": "3.8 ± 0.1", "unit": "µM"}
    ]},
    {"molecule": "Cc1ccc([N+](=O)[O-])cc1S(=O)(=O)NNc1nc(-c2cccc([N+](=O)[O-])c2)cs1", "note": "[analog 4, 2-Methyl-5-nitro-N′-(4-(3-nitrophenyl)thiazol-2-yl)benzenesulfonohydrazide]", "values": [
      {"measurement": "IC50", "setting": "[1]", "value": "3.2 ± 0.1", "unit": "µM"},
      {"measurement": "IC50", "setting": "[2]", "value": "6.1 ± 0.2", "unit": "µM"}
    ]},
    {"molecule": "Cc1ccc([N+](=O)[O-])cc1S(=O)(=O)NNc1nc(-c2ccc(Cl)cc2)cs1", "note": "[analog 11, N′-(4-(4-chlorophenyl)thiazol-2-yl)-2-methyl-5-nitrobenzenesulfonohydrazide]", "values": [
      {"measurement": "IC50", "setting": "[1]; [3]", "value": "3.1 ± 0.1", "unit": "µM"},
      {"measurement": "IC50", "setting": "[2]; [4]", "value": "4.4 ± 0.1", "unit": "µM"}
    ]},
    {"molecule": "Cc1ccc([N+](=O)[O-])cc1S(=O)(=O)NNc1nc(-c2ccc(-c3ccccc3)cc2)cs1", "note": "[analog 16, N′-(4-([1,1′-biphenyl]-4-yl)thiazol-2-yl)-2-methyl-5-nitrobenzenesulfonohydrazide]", "values": [
      {"measurement": "IC50", "setting": "[1]; [3]", "value": "0.3 ± 0.05", "unit": "µM"},
      {"measurement": "IC50", "setting": "[2]; [4]", "value": "0.3 ± 0.05", "unit": "µM"}
    ]},
    {"molecule": "O=S(=O)(NNc1nc(-c2ccc(Cl)cc2)cs1)c1cc(Cl)cc(Cl)c1O", "note": "[analog 9, 3,5-Dichloro-N′-(4-(4-chlorophenyl)thiazol-2-yl)-2-hydroxybenzenesulfonohydrazide]", "values": [
      {"measurement": "IC50", "setting": "[1]; [3]", "value": "0.4 ± 0.05", "unit": "µM"},
      {"measurement": "IC50", "setting": "[2]; [4]", "value": "0.7 ± 0.05", "unit": "µM"}
    ]},
    {"molecule": "O=S(=O)(NNc1nc(-c2ccc(Cl)cc2)cs1)c1ccc(Cl)cc1", "note": "[analog 7, 4-Chloro-N′-(4-(4-chlorophenyl)thiazol-2-yl)benzenesulfonohydrazide]", "values": [
      {"measurement": "IC50", "setting": "[1]; [3]", "value": "2.6 ± 0.1", "unit": "µM"},
      {"measurement": "IC50", "setting": "[2]; [4]", "value": "4.2 ± 0.1", "unit": "µM"}
    ]},
    {"molecule": "O=[N+]([O-])c1ccc(S(=O)(=O)NNc2nc(-c3cccc([N+](=O)[O-])c3)cs2)cc1", "note": "[analog 20, 4-Nitro-N′-(4-(3-nitrophenyl)thiazol-2-yl)benzenesulfonohydrazide]", "values": [
      {"measurement": "IC50", "setting": "[1]", "value": "3.5 ± 0.1", "unit": "µM"},
      {"measurement": "IC50", "setting": "[2]", "value": "5.5 ± 0.1", "unit": "µM"}
    ]},
    {"molecule": "O=S(=O)(NNc1nc(-c2ccc(Cl)c(Cl)c2)cs1)c1ccc(Cl)cc1", "note": "[analog 15, 4-Chloro-N′-(4-(3,4-dichlorophenyl)thiazol-2-yl)benzenesulfonohydrazide]", "values": [
      {"measurement": "IC50", "setting": "[1]; [3]", "value": "0.4 ± 0.1", "unit": "µM"},
      {"measurement": "IC50", "setting": "[2]; [4]", "value": "0.9 ± 0.1", "unit": "µM"}
    ]},
    {"molecule": "O=[N+]([O-])c1ccc(S(=O)(=O)NNc2nc(-c3ccccc3)cs2)cc1", "note": "[analog 6, 4-Nitro-N′-(4-phenylthiazol-2-yl)benzenesulfonohydrazide]", "values": [
      {"measurement": "IC50", "setting": "[1]; [3]", "value": "11.4 ± 0.2", "unit": "µM"},
      {"measurement": "IC50", "setting": "[2]; [4]", "value": "14.3 ± 0.3", "unit": "µM"}
    ]},
    {"molecule": "O=[N+]([O-])c1cccc(S(=O)(=O)NNc2nc(-c3ccc(Cl)cc3)cs2)c1", "note": "[analog 14, N′-(4-(4-chlorophenyl)thiazol-2-yl)-3-nitrobenzenesulfonohydrazide]", "values": [
      {"measurement": "IC50", "setting": "[1]; [3]", "value": "1.2 ± 0.1", "unit": "µM"},
      {"measurement": "IC50", "setting": "[2]; [4]", "value": "2.7 ± 0.1", "unit": "µM"}
    ]},
    {"molecule": "O=S(=O)(NNc1nc(-c2ccc(-c3ccccc3)cc2)cs1)c1ccc(Cl)cc1", "note": "[analog 8, N′-(4-([1,1′-biphenyl]-4-yl)thiazol-2-yl)-4-chlorobenzenesulfonohydrazide]", "values": [
      {"measurement": "IC50", "setting": "[1]; [3]", "value": "7.3 ± 0.1", "unit": "µM"},
      {"measurement": "IC50", "setting": "[2]; [4]", "value": "9.2 ± 0.1", "unit": "µM"}
    ]},
    {"molecule": "O=[N+]([O-])c1cccc(-c2csc(NNS(=O)(=O)c3cc(Cl)cc(Cl)c3O)n2)c1", "note": "[analog 1, 3,5-Dichlro-2-hydroxy-N′-(4-(3-nitrophenyl)thiazol-2-yl)benzenesulfonohydrazide]", "values": [
      {"measurement": "IC50", "setting": "[1]; [3]", "value": "0.1 ± 0.05", "unit": "µM"},
      {"measurement": "IC50", "setting": "[2]; [4]", "value": "0.2 ± 0.05", "unit": "µM"}
    ]},
    {"molecule": "Cc1ccc([N+](=O)[O-])cc1S(=O)(=O)NNc1nc(-c2ccc(Cl)c(Cl)c2)cs1", "note": "[analog 10, N′-(4-(3,4-dichlorophenyl)thiazol-2-yl)-2-methyl-5-nitrobenzenesulfonohydrazide]", "values": [
      {"measurement": "IC50", "setting": "[1]; [3]", "value": "0.2 ± 0.05", "unit": "µM"},
      {"measurement": "IC50", "setting": "[2]; [4]", "value": "0.6 ± 0.05", "unit": "µM"}
    ]}
  ]
}
